Measurements reported in ChEMBL document CHEMBL3588795, “GPCR crystal structures: Medicinal chemistry in the pocket” (Bioorg Med Chem, 2015).

Molecular target: Metabotropic glutamate receptor 1 (Homo sapiens, UniProt Q13255)
Experiment: Negative allosteric modulation of human mGluR1alpha expressed in syrian hamster AV-12 cells assessed as inhibition of quisqualate-induced phosphoinositide hydrolysis
Type: cell-based, AV12

Chain of Metabotropic glutamate receptor 1 (Q13255 whole entry): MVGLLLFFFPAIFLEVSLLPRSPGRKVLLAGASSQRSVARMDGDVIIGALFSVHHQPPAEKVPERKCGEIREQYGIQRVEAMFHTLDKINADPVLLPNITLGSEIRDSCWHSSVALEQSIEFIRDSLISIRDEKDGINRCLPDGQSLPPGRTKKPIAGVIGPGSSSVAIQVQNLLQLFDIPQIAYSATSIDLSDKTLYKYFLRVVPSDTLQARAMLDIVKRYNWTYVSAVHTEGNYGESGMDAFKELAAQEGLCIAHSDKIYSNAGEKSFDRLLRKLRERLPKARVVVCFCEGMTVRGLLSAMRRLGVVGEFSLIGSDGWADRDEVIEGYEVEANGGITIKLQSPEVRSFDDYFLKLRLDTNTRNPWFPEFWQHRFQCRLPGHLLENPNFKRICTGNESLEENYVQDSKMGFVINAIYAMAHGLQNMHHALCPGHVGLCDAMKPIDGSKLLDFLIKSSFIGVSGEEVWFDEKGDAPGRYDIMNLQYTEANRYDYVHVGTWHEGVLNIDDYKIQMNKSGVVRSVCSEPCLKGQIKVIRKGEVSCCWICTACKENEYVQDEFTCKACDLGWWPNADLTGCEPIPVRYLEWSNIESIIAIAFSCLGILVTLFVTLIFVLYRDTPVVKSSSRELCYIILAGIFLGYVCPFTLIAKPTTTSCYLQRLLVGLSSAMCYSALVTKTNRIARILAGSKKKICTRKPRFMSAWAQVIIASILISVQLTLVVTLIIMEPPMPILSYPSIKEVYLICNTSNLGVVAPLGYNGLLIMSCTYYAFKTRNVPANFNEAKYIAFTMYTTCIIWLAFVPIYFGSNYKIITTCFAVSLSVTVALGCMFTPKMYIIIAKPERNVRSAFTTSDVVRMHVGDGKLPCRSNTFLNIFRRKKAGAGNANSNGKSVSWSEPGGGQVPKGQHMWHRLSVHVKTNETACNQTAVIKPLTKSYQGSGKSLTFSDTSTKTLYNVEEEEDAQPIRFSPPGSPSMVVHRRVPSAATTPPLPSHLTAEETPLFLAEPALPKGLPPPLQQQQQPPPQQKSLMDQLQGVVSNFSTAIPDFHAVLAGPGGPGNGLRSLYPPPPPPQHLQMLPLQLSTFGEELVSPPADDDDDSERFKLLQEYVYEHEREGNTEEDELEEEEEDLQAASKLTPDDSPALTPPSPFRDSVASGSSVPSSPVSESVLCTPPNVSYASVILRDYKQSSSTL

IC50: 8 µM
Structure (SMILES): Cc1cc(C(=O)O)ccc1[C@H](N)C(=O)O
